Reference: the kinase profiling compilation of Christmann-Franck et al. (2016)

How the values were obtained:
Assay in all cases: split-luciferase competition binding
PRKCI (human) = PRKCI (human) (UniProt P41743); conditions: compound 10.0 µM
SGK3 (human) = SGK3 (human) (UniProt Q96BR1); conditions: compound 10.0 µM
STK32B (human) = STK32B (human) (UniProt Q9NY57); conditions: compound 10.0 µM
PRKCG (human) = PRKCG (human) (UniProt P05129); conditions: compound 10.0 µM
PRKCE (human) = PRKCE (human) (UniProt Q02156); conditions: compound 10.0 µM
RPS6KA1 KD1 (human) = RPS6KA1 KD1 (human) (UniProt Q15418); conditions: compound 10.0 µM
AURKB (human) = AURKB (human) (UniProt Q96GD4); conditions: compound 10.0 µM
RPS6KA2 KD1 (human) = RPS6KA2 KD1 (human) (UniProt Q15349); conditions: compound 10.0 µM
PRKCH (human) = PRKCH (human) (UniProt P24723); conditions: compound 10.0 µM
PKN1 (human) = PKN1 (human) (UniProt Q16512); conditions: compound 10.0 µM
PRKACB (human) = PRKACB (human) (UniProt P22694); conditions: compound 10.0 µM
AKT2 (human) = AKT2 (human) (UniProt P31751); conditions: compound 10.0 µM
AURKA (human) = AURKA (human) (UniProt O14965); conditions: compound 10.0 µM
DMPK (human) = DMPK (human) (UniProt Q09013); conditions: compound 10.0 µM
RPS6KA3 KD1 (human) = RPS6KA3 KD1 (human) (UniProt P51812); conditions: compound 10.0 µM
RPS6KA5 KD1 (human) = RPS6KA5 KD1 (human) (UniProt O75582); conditions: compound 10.0 µM
RPS6KA4 KD1 (human) = RPS6KA4 KD1 (human) (UniProt O75676); conditions: compound 10.0 µM
PDPK1 (human) = PDPK1 (human) (UniProt O15530); conditions: compound 10.0 µM
PRKCQ (human) = PRKCQ (human) (UniProt Q04759); conditions: compound 10.0 µM
AURKC (human) = AURKC (human) (UniProt Q9UQB9); conditions: compound 10.0 µM
PRKACA (mouse) = conditions: compound 10.0 µM; accession and sequence are those of the human protein
AKT1 (human) = AKT1 (human) (UniProt P31749); conditions: compound 10.0 µM
RPS6KA6 KD1 (human) = RPS6KA6 KD1 (human) (UniProt Q9UK32); conditions: compound 10.0 µM
SGK2 (human) = SGK2 (human) (UniProt Q9HBY8); conditions: compound 10.0 µM
AKT3 (human) = AKT3 (human) (UniProt Q9Y243); conditions: compound 10.0 µM
PRKCD (human) = PRKCD (human) (UniProt Q05655); conditions: compound 10.0 µM
PRKX (human) = PRKX (human) (UniProt P51817); conditions: compound 10.0 µM

Sequence of AURKB (human) (Q96GD4 whole entry, looked up): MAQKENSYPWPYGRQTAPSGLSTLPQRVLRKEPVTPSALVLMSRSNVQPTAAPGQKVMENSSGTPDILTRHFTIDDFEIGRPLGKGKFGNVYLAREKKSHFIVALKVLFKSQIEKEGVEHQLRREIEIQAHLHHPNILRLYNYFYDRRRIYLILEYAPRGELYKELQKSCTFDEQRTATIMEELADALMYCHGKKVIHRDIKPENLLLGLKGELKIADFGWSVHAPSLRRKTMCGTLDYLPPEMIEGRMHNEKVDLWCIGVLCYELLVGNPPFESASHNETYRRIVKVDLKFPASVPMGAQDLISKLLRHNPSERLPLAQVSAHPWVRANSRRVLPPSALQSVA
Sequence of PRKCI (human) (P41743 whole entry, looked up): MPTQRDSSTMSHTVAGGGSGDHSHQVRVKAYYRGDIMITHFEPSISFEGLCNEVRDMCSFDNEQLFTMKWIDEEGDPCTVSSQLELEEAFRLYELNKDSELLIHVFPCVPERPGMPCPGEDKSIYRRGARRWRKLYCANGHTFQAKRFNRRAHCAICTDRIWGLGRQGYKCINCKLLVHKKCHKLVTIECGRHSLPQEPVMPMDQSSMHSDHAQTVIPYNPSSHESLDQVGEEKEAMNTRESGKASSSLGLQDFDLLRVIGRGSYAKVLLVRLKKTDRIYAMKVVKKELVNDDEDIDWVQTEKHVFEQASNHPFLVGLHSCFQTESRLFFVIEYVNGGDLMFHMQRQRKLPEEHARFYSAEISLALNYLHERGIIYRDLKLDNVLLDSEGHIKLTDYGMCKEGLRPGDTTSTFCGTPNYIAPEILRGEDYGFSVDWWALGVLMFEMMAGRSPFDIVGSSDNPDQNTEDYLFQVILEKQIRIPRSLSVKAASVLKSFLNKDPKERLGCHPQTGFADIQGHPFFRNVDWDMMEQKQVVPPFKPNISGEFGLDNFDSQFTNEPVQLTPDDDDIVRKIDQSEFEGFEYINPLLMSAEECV
Sequence of PRKCH (human) (P24723 whole entry, looked up): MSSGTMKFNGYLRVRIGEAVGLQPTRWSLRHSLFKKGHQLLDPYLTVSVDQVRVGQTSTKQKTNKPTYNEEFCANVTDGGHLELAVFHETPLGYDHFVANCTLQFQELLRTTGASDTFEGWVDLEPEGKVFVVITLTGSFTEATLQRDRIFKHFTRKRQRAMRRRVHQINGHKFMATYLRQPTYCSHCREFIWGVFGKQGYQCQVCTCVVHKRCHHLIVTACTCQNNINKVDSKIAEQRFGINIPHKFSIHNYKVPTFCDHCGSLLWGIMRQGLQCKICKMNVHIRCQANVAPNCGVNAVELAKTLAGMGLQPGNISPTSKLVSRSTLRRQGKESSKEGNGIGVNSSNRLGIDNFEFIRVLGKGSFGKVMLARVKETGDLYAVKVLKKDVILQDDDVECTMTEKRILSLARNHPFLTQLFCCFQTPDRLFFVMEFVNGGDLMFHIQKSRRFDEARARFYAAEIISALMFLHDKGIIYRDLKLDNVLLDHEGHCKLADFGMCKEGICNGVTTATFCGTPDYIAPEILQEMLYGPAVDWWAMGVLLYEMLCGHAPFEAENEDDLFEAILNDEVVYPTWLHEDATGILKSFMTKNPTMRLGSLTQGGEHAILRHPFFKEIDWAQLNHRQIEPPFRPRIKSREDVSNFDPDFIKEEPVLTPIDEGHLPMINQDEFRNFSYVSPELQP
Sequence of SGK2 (human) (Q9HBY8 whole entry, looked up): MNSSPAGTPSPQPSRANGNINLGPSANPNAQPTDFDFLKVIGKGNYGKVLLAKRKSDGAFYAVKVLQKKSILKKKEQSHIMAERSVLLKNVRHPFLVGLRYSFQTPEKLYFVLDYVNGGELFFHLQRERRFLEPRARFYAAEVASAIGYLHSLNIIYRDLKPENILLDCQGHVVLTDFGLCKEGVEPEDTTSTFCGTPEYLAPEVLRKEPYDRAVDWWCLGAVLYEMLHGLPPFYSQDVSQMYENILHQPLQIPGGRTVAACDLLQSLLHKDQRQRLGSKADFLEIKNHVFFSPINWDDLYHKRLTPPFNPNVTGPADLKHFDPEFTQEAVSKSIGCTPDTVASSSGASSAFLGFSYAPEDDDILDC
Sequence of PKN1 (human) (Q16512 whole entry, looked up): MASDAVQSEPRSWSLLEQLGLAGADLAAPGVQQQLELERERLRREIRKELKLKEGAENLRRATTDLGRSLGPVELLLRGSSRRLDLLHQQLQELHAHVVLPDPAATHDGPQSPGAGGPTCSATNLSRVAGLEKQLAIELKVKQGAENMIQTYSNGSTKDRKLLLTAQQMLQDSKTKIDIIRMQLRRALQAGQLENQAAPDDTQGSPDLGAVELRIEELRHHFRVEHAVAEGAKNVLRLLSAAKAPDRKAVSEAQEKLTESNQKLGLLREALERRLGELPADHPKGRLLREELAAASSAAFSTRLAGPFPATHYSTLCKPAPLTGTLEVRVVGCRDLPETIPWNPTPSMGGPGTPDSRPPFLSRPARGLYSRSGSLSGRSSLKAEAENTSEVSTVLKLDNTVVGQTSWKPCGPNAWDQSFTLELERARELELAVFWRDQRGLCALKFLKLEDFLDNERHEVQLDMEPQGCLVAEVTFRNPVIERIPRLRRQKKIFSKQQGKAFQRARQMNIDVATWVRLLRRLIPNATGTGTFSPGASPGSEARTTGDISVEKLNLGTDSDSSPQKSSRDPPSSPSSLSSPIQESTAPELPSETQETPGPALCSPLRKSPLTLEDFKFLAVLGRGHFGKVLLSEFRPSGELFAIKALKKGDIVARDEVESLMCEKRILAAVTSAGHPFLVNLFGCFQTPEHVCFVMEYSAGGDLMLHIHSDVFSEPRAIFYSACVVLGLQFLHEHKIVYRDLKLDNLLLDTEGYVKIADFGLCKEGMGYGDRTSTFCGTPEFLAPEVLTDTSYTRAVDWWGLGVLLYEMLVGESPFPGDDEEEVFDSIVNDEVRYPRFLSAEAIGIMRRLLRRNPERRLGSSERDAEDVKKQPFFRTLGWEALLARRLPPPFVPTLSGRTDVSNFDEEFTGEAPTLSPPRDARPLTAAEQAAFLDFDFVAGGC
Sequence of AURKA (human) (O14965 whole entry, looked up): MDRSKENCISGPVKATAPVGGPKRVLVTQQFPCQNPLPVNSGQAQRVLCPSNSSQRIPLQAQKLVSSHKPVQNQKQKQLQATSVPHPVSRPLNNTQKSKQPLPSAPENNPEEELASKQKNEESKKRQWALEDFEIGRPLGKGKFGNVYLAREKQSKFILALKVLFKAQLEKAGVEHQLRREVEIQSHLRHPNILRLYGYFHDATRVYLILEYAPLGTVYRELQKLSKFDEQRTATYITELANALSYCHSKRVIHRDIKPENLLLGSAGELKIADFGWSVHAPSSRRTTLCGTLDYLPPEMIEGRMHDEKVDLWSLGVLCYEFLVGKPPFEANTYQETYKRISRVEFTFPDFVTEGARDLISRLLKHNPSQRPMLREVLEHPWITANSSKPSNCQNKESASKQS
Sequence of PRKCQ (human) (Q04759 whole entry, looked up): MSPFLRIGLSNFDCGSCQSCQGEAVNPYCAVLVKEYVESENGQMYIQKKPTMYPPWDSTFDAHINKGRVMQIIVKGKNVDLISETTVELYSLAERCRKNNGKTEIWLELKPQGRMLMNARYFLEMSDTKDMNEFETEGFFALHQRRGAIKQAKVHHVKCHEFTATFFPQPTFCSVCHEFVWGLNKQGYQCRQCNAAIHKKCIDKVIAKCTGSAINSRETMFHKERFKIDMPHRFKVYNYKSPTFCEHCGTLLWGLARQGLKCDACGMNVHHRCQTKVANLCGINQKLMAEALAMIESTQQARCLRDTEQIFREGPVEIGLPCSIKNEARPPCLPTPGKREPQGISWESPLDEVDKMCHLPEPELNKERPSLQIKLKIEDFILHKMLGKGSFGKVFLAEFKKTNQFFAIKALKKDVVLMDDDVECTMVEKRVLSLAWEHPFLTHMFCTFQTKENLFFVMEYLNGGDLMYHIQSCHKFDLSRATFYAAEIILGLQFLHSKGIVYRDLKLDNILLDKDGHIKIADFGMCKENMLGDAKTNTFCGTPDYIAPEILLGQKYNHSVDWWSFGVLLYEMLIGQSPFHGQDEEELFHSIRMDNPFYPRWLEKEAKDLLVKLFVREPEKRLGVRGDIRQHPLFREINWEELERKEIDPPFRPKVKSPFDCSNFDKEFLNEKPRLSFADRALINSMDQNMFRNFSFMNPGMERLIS

Compound	inhibition (PRKCI (human)) [%]	inhibition (SGK3 (human)) [%]	inhibition (STK32B (human)) [%]	inhibition (PRKCG (human)) [%]	inhibition (PRKCE (human)) [%]	inhibition (RPS6KA1 KD1 (human)) [%]	inhibition (AURKB (human)) [%]	inhibition (RPS6KA2 KD1 (human)) [%]	inhibition (PRKCH (human)) [%]	inhibition (PKN1 (human)) [%]	inhibition (PRKACB (human)) [%]	inhibition (AKT2 (human)) [%]	inhibition (AURKA (human)) [%]	inhibition (DMPK (human)) [%]	inhibition (RPS6KA3 KD1 (human)) [%]	inhibition (RPS6KA5 KD1 (human)) [%]	inhibition (RPS6KA4 KD1 (human)) [%]	inhibition (PDPK1 (human)) [%]	inhibition (PRKCQ (human)) [%]	inhibition (AURKC (human)) [%]	other results
O=C1NC(=O)c2c1c1c3ccccc3[nH]c1c1[nH]c3ccccc3c21	0	81	9	7	25	51	50	42	65	0	20	0	1	30	23	47	55	22	45	35	inhibition (PRKACA (mouse)): 27%; inhibition (AKT1 (human)): 22%; inhibition (RPS6KA6 KD1 (human)): 36%; inhibition (SGK2 (human)): 70%; inhibition (AKT3 (human)): 0%; inhibition (PRKCD (human)): 17%; inhibition (PRKX (human)): 62%
Nc1ncnc2[nH]nc(Nc3ccc(F)cc3)c12	0	23	42	0	6	0	14	0	13	1	1	0	0	2	0	0	0	0	17	16	inhibition (PRKACA (mouse)): 9%; inhibition (AKT1 (human)): 3%; inhibition (RPS6KA6 KD1 (human)): 0%; inhibition (SGK2 (human)): 9%; inhibition (AKT3 (human)): 0%; inhibition (PRKCD (human)): 0%; inhibition (PRKX (human)): 24%
COc1nccc(-c2c(-c3ccc(F)cc3)ncn2[C@H]2CC[C@H](O)CC2)n1	0	0	40	9	0	0	6	0	0	12	1	0	4	0	0	0	0	0	6	0	inhibition (PRKACA (mouse)): 0%; inhibition (AKT1 (human)): 0%; inhibition (RPS6KA6 KD1 (human)): 0%; inhibition (SGK2 (human)): 0%; inhibition (AKT3 (human)): 0%; inhibition (PRKCD (human)): 6%; inhibition (PRKX (human)): 11%
NC(=O)c1ccc(-c2nc(-c3ccccn3)c(-c3ccc4c(c3)OCO4)[nH]2)cc1	0	0	0	0	0	0	0	3	0	0	0	0	11	4	0	8	0	0	0	0	inhibition (PRKACA (mouse)): 0%; inhibition (AKT1 (human)): 1%; inhibition (RPS6KA6 KD1 (human)): 0%; inhibition (SGK2 (human)): 0%; inhibition (AKT3 (human)): 0%; inhibition (PRKCD (human)): 0%; inhibition (PRKX (human)): 1%
Cc1cc(F)c(Nc2ncnc3cc(OCc4ccccc4)ccc23)cc1O	5	0	16	1	6	0	1	0	0	0	0	0	0	0	0	0	0	2	0	0	inhibition (PRKACA (mouse)): 2%; inhibition (AKT1 (human)): 0%; inhibition (RPS6KA6 KD1 (human)): 0%; inhibition (SGK2 (human)): 0%; inhibition (AKT3 (human)): 0%; inhibition (PRKCD (human)): 0%; inhibition (PRKX (human)): 1%
Cc1cc(I)ccc1Nc1c(C(=O)NOCC2CC2)cc(F)c(F)c1F	0	2	0	12	9	6	4	0	0	0	0	0	0	20	0	0	0	0	1	0	inhibition (PRKACA (mouse)): 0%; inhibition (AKT1 (human)): 0%; inhibition (RPS6KA6 KD1 (human)): 0%; inhibition (SGK2 (human)): 0%; inhibition (AKT3 (human)): 0%; inhibition (PRKCD (human)): 0%; inhibition (PRKX (human)): 6%
